Test results: patent US6465496B1, “Torsemide polymorphs” (Teva Pharmaceutical Industries, Ltd., priority 1999, dated 2002)

Assays:
Format in all cases: physicochemical
[1] = solubility of amorphous torsemide compared with crystalline forms; conditions: compared with crystalline forms reported in U.S. Pat. No. 5,914,336, U.S. Pat. No. Re. 34,672 and WO 00/20395
[2] = stability of the crystal form in an ethanol slurry; conditions: stirred at room temperature
Protocol: (§1) In another embodiment of the present invention, torsemide modification I may be made from torsemide modification II by reslurry in ethanol. By the process of the present invention, torsemide modification II is stirred at room temperature in ethanol for a time sufficient to induce the transformation of torsemide modification II to torsemide modification I. Preferably the mixture is stirred for 2 hours. Torsemide modification I is isolated upon filtering the mixture followed by drying under high vacuum at a temperature of about 40° C. to about 60° C. for a sufficient time to complete drying. Drying is complete upon reaching constant weight. It has been observed that torsemide modification I is stable in an ethanol slurry for at least 65 hours.
as §1, with “dimethyl formamide (DMF).” for “ethanol.”, “methods” for “process”, “DMF” for “ethanol”, “I.” for “I. Preferably the mixture is stirred for 2 hours.”, “It has been observed that torsemide modification I is stable in an ethanol slurry for at least 65 hours.” left out

[3] = pH at which torsemide begins to precipitate on acidifying the basified aqueous/alcohol solution; conditions: water/organic solvent (isopropanol or ethanol) solution, pH lowered with acid
Protocol: An organic solvent is then added to the torsemide solution with stirring. Suitable solvents include water soluble or partially water soluble alcohols such as propanol, isopropanol and ethanol. Preferably, the solvent is isopropanol or ethanol. The pH of the torsemide solution is then lowered by the addition of a suitable acid until the solution begins to become cloudy and torsemide Dupont Form 2 begins to precipitate. Torsemide begins to precipitate at about pH 6. Suitable acids include acetic acid, hydrochloric acid, sulfuric acid, mineral acids and the like. Acetic acid is preferred. Since torsemide is known to decompose at pH 3.0, the pH of the solution is preferably maintained at about 6±0.1 with a minimum pH of […] and a maximum pH of 7.5±0.5. Torsemide Dupont Form 2 is then isolated by filtration and drying to remove solvent.
An organic solvent is then added to the torsemide solution with stirring. Suitable solvents include water soluble or partially water soluble alcohols such as propanol, isopropanol and ethanol. Preferably, the solvent is isopropanol or ethanol. The pH of the torsemide solution is then lowered by the addition of a suitable acid until the solution begins to become cloudy and torsemide Dupont Form 2 solvent adduct begins to precipitate. Torsemide begins to precipitate at about pH 6. […]

Question: Which “solubility relative to crystalline forms of torsemide” value [1] does the source give for `Cc1cccc(Nc2ccncc2S(=O)(=O)NC(=O)NC(C)C)c1` [amorphous torsemide] here?
Answer: more soluble than crystalline forms of torsemide

Question: Which “time stable in an ethanol slurry” value [2] does the source give for `Cc1cccc(Nc2ccncc2S(=O)(=O)NC(=O)NC(C)C)c1` [torsemide modification I] here?
Answer: at least 65 hours

Question: With `Cc1cccc(Nc2ccncc2S(=O)(=O)NC(=O)NC(C)C)c1` [torsemide, 1-Isopropyl-3-[(4-m-toluidino-3-pyridyl)sulfonyl]urea] as the compound, how does the “pH at which torsemide begins to precipitate” value [3] read?
Answer: about 6 pH
